The source of these data is patent US10392363B2, “Methods for treating protozoan infections” (Neoculi Pty Ltd., priority 2014, dated 2019).

Data set [1] in a line: Solubility estimates using nephelometry. In kind it is physicochemical. As to conditions: pH 6.5 phosphate buffer. The method, then: Compound in DMSO was spiked into either pH 6.5 phosphate buffer or 0.01 M HCl (approx. pH 2.0) with the final DMSO concentration being 1%. Samples were then analysed via Nephelometry to determine a solubility range. (See C. D. Bevan and R. S. Lloyd, Anal. Chem. 2000, 72, 1781-1787).

A short description of data set [2]: Exposure in male Swiss outbred mice following IV administration. Type of data set: in vivo. The note with it: IV 5 mg/kg. The method, then: The systemic exposures of NCL026, NCL195, NCL259 and NCL812 were studied in nonfasted male Swiss outbred mice weighing 26.2-32.1 g. Mice had access to food and water ad libitum throughout the pre- and post-dose sampling period. Each compound was administered IV via a bolus injection into the tail vein (vehicle 20% (v/v) DMSO in PEG400, 1 mL/kg dose volume, n=8 mice per compound). […] A maximum of two samples were obtained from each mouse, with samples being taken either via submandibular bleed (approximately 120 μL; conscious sampling) or terminal cardiac puncture (0.6 mL; while mice were anaesthetised using inhaled Isoflurane). No urine samples were collected as mice were housed in bedded cages during the study. Blood was collected directly into polypropylene Eppendorf tubes containing heparin as anticoagulant, and stabilisation cocktail (containing Complete® (a protease inhibitor cocktail with EDTA) and potassium fluoride) to minimise the potential for ex vivo degradation of the test compounds in blood/plasma samples. Once collected, blood samples were centrifuged immediately, supernatant plasma was removed, and stored at −80° C. until analysis by LC-MS using methods standard in the art. Each compound was administered in a vehicle composed of 20% (v/v) DMSO in PEG400. Formulations were prepared by dissolving the compounds in DMSO prior to addition of PEG400. Formulations were not filtered prior to dosing and were administered to mice within 2.5 h of preparation. […] The dose administered to each mouse was calculated on the basis of the measured concentration in the IV formulation, the dose volume and individual mouse body weight. Plasma concentration versus time data were analysed using non-compartmental methods (WinNonlin Version 6.3.0.395). Standard calculations for each pharmacokinetic parameter were calculated using standard methods in the art.

[3] abbreviates: values marked a, b are approximations.

The structures appear in SMILES notation. Marks after values point to notes of the source that are not given here.

`Cl.[H]/N=C(\N)NN=C(CC1CCCCC1)c1ccc(Cl)cc1` [NCL259]: the “kinetic solubility under neutral pH conditions” value in data set [1] is on record as “more moderate”. Moreover, the “Apparent t1/2” value in data set [2] (plasma, value marked b is an approximation) turned out to be 2.9 h. Further, in data set [2] (setting [3]), the AUC0-inf is listed as 5.5^a h * μM, the “Plasma CL” value was 56.0^a mL/min/kg and the “Plasma Vss” value is 12.8^a L/kg.
